These results are taken from the supplement of paper PMC10307832.

Common to all, as to assay: relative viability (nuclei count vs DMSO), 5 days (fraction); higher = more cells survive
Compound in the test “AZ505 + Foretinib”: C1CCC(CC1)N(CCNCCC2=C3C(=C(C=C2)O)NC(=O)CO3)C(=O)CCNCCC4=CC(=C(C=C4)Cl)Cl [AZ505] + COc1cc2c(Oc3ccc(NC(=O)C4(C(=O)Nc5ccc(F)cc5)CC4)cc3F)ccnc2cc1OCCCN1CCOCC1 [Foretinib] (partner 0.25 µM)
The method, boiled down: (§1)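 Lung cancer cell lines were seeded in 1536-well plates and dosed by pin tool the next day, with either a single drug or a fixed anchor-drug dose combined with five library-drug doses (not always all listed) spaced in √10 steps. Five days later, one step fixed the cells and stained their nuclei (final 0.05% Triton X-100, 1% formaldehyde, 1 ug/ml Hoechst), and nuclei were counted on 4× images. Relative viability is the nuclei count in treated wells divided by the count in vehicle wells, and each value is the median of duplicate plates.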

Compound in the test “AZ505 + Decitabine”: C1CCC(CC1)N(CCNCCC2=C3C(=C(C=C2)O)NC(=O)CO3)C(=O)CCNCCC4=CC(=C(C=C4)Cl)Cl [AZ505] + Nc1ncn([C@H]2C[C@H](O)[C@@H](CO)O2)c(=O)n1 [Decitabine] (partner 2 µM)
The procedure, abridged: as §1

Compound in the test “Dactolisib + Decitabine”: Cn1c(=O)n(-c2ccc(C(C)(C)C#N)cc2)c2c3cc(-c4cnc5ccccc5c4)ccc3ncc21 [Dactolisib] + Nc1ncn([C@H]2C[C@H](O)[C@@H](CO)O2)c(=O)n1 [Decitabine] (partner 2 µM)
The method, boiled down: as §1

Compound in the test “Dactolisib + Navitoclax”: Cn1c(=O)n(-c2ccc(C(C)(C)C#N)cc2)c2c3cc(-c4cnc5ccccc5c4)ccc3ncc21 [Dactolisib] + CC1(C)CCC(c2ccc(Cl)cc2)=C(CN2CCN(c3ccc(C(=O)NS(=O)(=O)c4ccc(N[C@H](CCN5CCOCC5)CSc5ccccc5)c(S(=O)(=O)C(F)(F)F)c4)cc3)CC2)C1 [Navitoclax] (partner 0.5 µM)
The procedure, abridged:
as §1

As to HCC-366, the relative viability with AZ505 + Foretinib (first compound 0.08 µM) came to 0.926; with AZ505 + Foretinib (first compound 0.253 µM), 0.878; in the test with AZ505 + Foretinib (first compound 0.8 µM), 0.889; in the test with AZ505 + Foretinib (first compound 2.53 µM), 0.852; in the test with AZ505 + Foretinib (first compound 8 µM), 0.924; with AZ505 + Decitabine (first compound 0.08 µM), 0.342. Also, the relative viability was 0.344 with AZ505 + Decitabine (first compound 0.253 µM); 0.316 with AZ505 + Decitabine (first compound 0.8 µM); 0.316 with AZ505 + Decitabine (first compound 2.53 µM); 0.341 with AZ505 + Decitabine (first compound 8 µM); 0.376 with Dactolisib + Decitabine (first compound 0.002 µM); 0.338 in the test with Dactolisib + Decitabine (first compound 0.006325 µM). For the same cell line, the relative viability in the test with Dactolisib + Decitabine (first compound 0.02 µM) stood at 0.256; with Dactolisib + Decitabine (first compound 0.06325 µM), 0.28; in the test with Dactolisib + Decitabine (first compound 0.2 µM), 0.133; in the test with Dactolisib + Navitoclax (first compound 0.002 µM), 1; with Dactolisib + Navitoclax (first compound 0.006325 µM) it was 0.961; with Dactolisib + Navitoclax (first compound 0.02 µM) it was 1.07. Also, the results for the relative viability in the test with Dactolisib + Navitoclax (first compound 0.06325 µM) and with Dactolisib + Navitoclax (first compound 0.2 µM) were 0.67 and 0.498, respectively.
Take NCI-H727: the relative viability is 0.998 with AZ505 + Foretinib (first compound 0.08 µM); 0.861 with AZ505 + Foretinib (first compound 0.253 µM); 0.856 with AZ505 + Foretinib (first compound 0.8 µM); 0.993 with AZ505 + Foretinib (first compound 8 µM); 0.829 with AZ505 + Decitabine (first compound 0.08 µM); 0.693 with AZ505 + Decitabine (first compound 0.253 µM). The relative viability with AZ505 + Decitabine (first compound 0.8 µM) is 0.812; with AZ505 + Decitabine (first compound 2.53 µM), 0.849; with AZ505 + Decitabine (first compound 8 µM), 0.987; with Dactolisib + Decitabine (first compound 0.006325 µM) it was 0.986; in the test with Dactolisib + Decitabine (first compound 0.02 µM) it was 1.01; with Dactolisib + Decitabine (first compound 0.06325 µM), 0.465. Also, the relative viability came out at 0.496 in the test with Dactolisib + Decitabine (first compound 0.2 µM); 0.467 in the test with Dactolisib + Navitoclax (first compound 0.002 µM); 0.506 with Dactolisib + Navitoclax (first compound 0.006325 µM); 0.341 with Dactolisib + Navitoclax (first compound 0.02 µM); 0.248 in the test with Dactolisib + Navitoclax (first compound 0.06325 µM); 0.162 with Dactolisib + Navitoclax (first compound 0.2 µM).
As to LU99A, the relative viability with AZ505 + Foretinib (first compound 0.253 µM) worked out at 0.987; with AZ505 + Foretinib (first compound 0.8 µM), 0.815; with AZ505 + Foretinib (first compound 2.53 µM) it was 0.78; in the test with AZ505 + Foretinib (first compound 8 µM), 0.751; with AZ505 + Decitabine (first compound 0.08 µM) it was 0.841; in the test with AZ505 + Decitabine (first compound 0.253 µM), 0.921. The relative viability in the test with AZ505 + Decitabine (first compound 0.8 µM) worked out at 0.802; in the test with AZ505 + Decitabine (first compound 8 µM) it was 0.87; with Dactolisib + Decitabine (first compound 0.002 µM), 0.906; with Dactolisib + Decitabine (first compound 0.006325 µM) it was 0.723; in the test with Dactolisib + Decitabine (first compound 0.02 µM) it was 0.602; with Dactolisib + Decitabine (first compound 0.06325 µM), 0.373. Further, the relative viability with Dactolisib + Decitabine (first compound 0.2 µM) was found to be 0.261; with Dactolisib + Navitoclax (first compound 0.002 µM), 0.704; with Dactolisib + Navitoclax (first compound 0.006325 µM) it was 0.689; with Dactolisib + Navitoclax (first compound 0.02 µM) it was 0.291; in the test with Dactolisib + Navitoclax (first compound 0.06325 µM), 0.173; with Dactolisib + Navitoclax (first compound 0.2 µM) it was 0.185.
With NCI-H647, the relative viability with AZ505 + Foretinib (first compound 0.08 µM) was 1.22; with AZ505 + Foretinib (first compound 0.253 µM), 1.37; with AZ505 + Foretinib (first compound 0.8 µM), 0.963; in the test with AZ505 + Foretinib (first compound 2.53 µM), 1.19; with AZ505 + Foretinib (first compound 8 µM), 1.12; in the test with AZ505 + Decitabine (first compound 0.08 µM), 0.356. Further, the relative viability with AZ505 + Decitabine (first compound 0.253 µM) was determined as 0.451; with AZ505 + Decitabine (first compound 0.8 µM), 0.372; with AZ505 + Decitabine (first compound 2.53 µM), 0.373; with AZ505 + Decitabine (first compound 8 µM), 0.379; with Dactolisib + Decitabine (first compound 0.002 µM), 0.487; with Dactolisib + Decitabine (first compound 0.006325 µM), 0.292. Also, the relative viability with Dactolisib + Decitabine (first compound 0.02 µM) is 0.188; with Dactolisib + Decitabine (first compound 0.06325 µM) it was 0.116; in the test with Dactolisib + Decitabine (first compound 0.2 µM), 0.14; in the test with Dactolisib + Navitoclax (first compound 0.002 µM), 1.1; with Dactolisib + Navitoclax (first compound 0.006325 µM), 0.964; with Dactolisib + Navitoclax (first compound 0.02 µM) it was 0.685. Besides, the values for the relative viability in the test with Dactolisib + Navitoclax (first compound 0.06325 µM) and with Dactolisib + Navitoclax (first compound 0.2 µM) were 0.295 and 0.348, respectively.
For the cell line HCC-78, the relative viability with AZ505 + Foretinib (first compound 0.08 µM) stood at 0.575; in the test with AZ505 + Foretinib (first compound 0.253 µM), 0.631; with AZ505 + Foretinib (first compound 0.8 µM), 0.578; in the test with AZ505 + Foretinib (first compound 2.53 µM), 0.568; in the test with AZ505 + Foretinib (first compound 8 µM), 0.644; with AZ505 + Decitabine (first compound 0.8 µM), 0.738. In addition, the relative viability stood at 0.705 with AZ505 + Decitabine (first compound 2.53 µM); 0.801 with AZ505 + Decitabine (first compound 8 µM); 0.834 with Dactolisib + Decitabine (first compound 0.002 µM); 0.854 in the test with Dactolisib + Decitabine (first compound 0.006325 µM); 0.619 with Dactolisib + Decitabine (first compound 0.02 µM); 0.612 with Dactolisib + Decitabine (first compound 0.06325 µM). Further, the relative viability with Dactolisib + Decitabine (first compound 0.2 µM) worked out at 0.455; in the test with Dactolisib + Navitoclax (first compound 0.002 µM), 0.784; in the test with Dactolisib + Navitoclax (first compound 0.006325 µM) it was 0.791; in the test with Dactolisib + Navitoclax (first compound 0.02 µM) it was 0.543; with Dactolisib + Navitoclax (first compound 0.06325 µM) it was 0.288; with Dactolisib + Navitoclax (first compound 0.2 µM), 0.251.
Take NCI-H1755: the relative viability was 0.817 in the test with AZ505 + Foretinib (first compound 0.08 µM); 0.913 in the test with AZ505 + Foretinib (first compound 0.253 µM); 0.893 with AZ505 + Foretinib (first compound 0.8 µM); 0.93 with AZ505 + Foretinib (first compound 2.53 µM); 0.9 in the test with AZ505 + Foretinib (first compound 8 µM); 0.721 in the test with AZ505 + Decitabine (first compound 0.08 µM). Moreover, the relative viability with AZ505 + Decitabine (first compound 0.253 µM) came to 0.727; in the test with AZ505 + Decitabine (first compound 0.8 µM), 0.724; with AZ505 + Decitabine (first compound 2.53 µM) it was 0.711; with AZ505 + Decitabine (first compound 8 µM), 0.772; with Dactolisib + Decitabine (first compound 0.002 µM) it was 0.87; with Dactolisib + Decitabine (first compound 0.006325 µM) it was 0.768. The relative viability is 0.766 in the test with Dactolisib + Decitabine (first compound 0.02 µM); 0.673 in the test with Dactolisib + Decitabine (first compound 0.06325 µM); 0.536 with Dactolisib + Decitabine (first compound 0.2 µM); 1.09 with Dactolisib + Navitoclax (first compound 0.002 µM); 0.943 with Dactolisib + Navitoclax (first compound 0.006325 µM); 0.928 in the test with Dactolisib + Navitoclax (first compound 0.02 µM). For the same cell line, the relative viability with Dactolisib + Navitoclax (first compound 0.06325 µM) is 0.519; with Dactolisib + Navitoclax (first compound 0.2 µM), 0.467.
In the case of NCI-H3122, the relative viability in the test with AZ505 + Foretinib (first compound 0.08 µM) amounted to 0.889; with AZ505 + Foretinib (first compound 0.253 µM), 0.993; in the test with AZ505 + Foretinib (first compound 0.8 µM) it was 0.837; with AZ505 + Foretinib (first compound 2.53 µM) it was 0.964; with AZ505 + Foretinib (first compound 8 µM) it was 1.05; with AZ505 + Decitabine (first compound 0.08 µM), 0.417. The relative viability was 0.414 in the test with AZ505 + Decitabine (first compound 0.253 µM); 0.418 with AZ505 + Decitabine (first compound 0.8 µM); 0.454 with AZ505 + Decitabine (first compound 2.53 µM); 0.431 with AZ505 + Decitabine (first compound 8 µM); 0.376 with Dactolisib + Decitabine (first compound 0.002 µM); 0.369 in the test with Dactolisib + Decitabine (first compound 0.006325 µM). The relative viability worked out at 0.415 with Dactolisib + Decitabine (first compound 0.02 µM); 0.284 with Dactolisib + Decitabine (first compound 0.06325 µM); 0.304 with Dactolisib + Decitabine (first compound 0.2 µM); 1.02 with Dactolisib + Navitoclax (first compound 0.002 µM); 1.05 with Dactolisib + Navitoclax (first compound 0.006325 µM); 0.993 with Dactolisib + Navitoclax (first compound 0.02 µM). The relative viability with Dactolisib + Navitoclax (first compound 0.06325 µM) turned out to be 0.809; with Dactolisib + Navitoclax (first compound 0.2 µM) it was 0.491.
